From patent US20030232057A1, “Method and composition for inducing tolerance to an antigenic material” (priority 2000, published 2003)

Experiments:
Assay type in all cases: in vivo, Balb/c mice
[1] = test system: anti-BLG IgE; experiment: Measurement of specific anti-BLG IgE antibody in serum by ELISA; conditions: 26 days post-tolerization; whey vs non-tolerized mice (p<0.05), drugs vs whey proteins fed mice
Description: To start the experiment the mice were forced fed and/or injected i.p. with butyrate (which promotes COX-2 activity), ibuprofen (which inhibits COX activity) or saline (control) daily from day −3 to day 4. On day 0, the mice were fed by gastric feeding whey proteins (3 mg/g of body weight) or same volume of saline water. Gavage products were dissolved in 0.3 ml of saline water. At day 4 of each experiment, all mice were immunized by intraperitoneal injection of 0.08 mg of BLG as well as 0.08 mg of OVA in 0.04 ml sterile saline mixed with 0.16 ml 2% Al(OH)3 (Superfos Biosecotr A/S, Denmark). […] (^3H)Tdr (Amersham, Zurich) was added for the final 6 hours of culture and the plates were harvested and analyzed by scintillation counting (TopCount, Canberra Packard, Zurich). […] Stimulation indices were calculated as the ratio of blank-subtracted test and control values at 2.5 mg BLG/mL and 50 μg PHA/mL. […] Optical densities were measured at 492 nm, after 15 mn of incubation at room temperature, using a Dynatech MR500 ELISA reader (Dynatech, Embrach-Embraport, Switzerland. Pooled samples from twenty non immunized female mice were used as negative controls in each plate. The cut-off dilutions were determined by calculating the dilution of the samples which gave twice the absorbance of the negative controls. Titers were expressed as the log10 of the reciprocal of the cut-off dilution.

[2] = test system: BLG-stimulated lymphocytes; experiment: Prostaglandin E2 measurement (EIA) in culture media of lymphocytes from treated mice; conditions: mice fed whey proteins 3 mg/g on day 0; drug daily day -3 to day 4; 5 days after tolerization; whey vs non-tolerized control mice, drugs vs whey proteins fed mice
Description: (§1) To start the experiment the mice were forced fed and/or injected i.p. with butyrate (which promotes COX-2 activity), ibuprofen (which inhibits COX activity) or saline (control) daily from day −3 to day 4. On day 0, the mice were fed by gastric feeding whey proteins (3 mg/g of body weight) or same volume of saline water. Gavage products were dissolved in 0.3 ml of saline water. At day 4 of each experiment, all mice were immunized by intraperitoneal injection of 0.08 mg of BLG as well as 0.08 mg of OVA in 0.04 ml sterile saline mixed with 0.16 ml 2% Al(OH)3 (Superfos Biosecotr A/S, Denmark). At day 4 or at day 26, blood samples were obtained from cardiac aortic punction under 3% Isoflurane anaesthesia (Abbott SA). Immediately after death, obtained by cervical dislocation, spleens were removed and pooled according to group of treatment in 20 ml chilled RPMI supplemented with 5% FCS. […] (^3H)Tdr (Amersham, Zurich) was added for the final 6 hours of culture and the plates were harvested and analyzed by scintillation counting (TopCount, Canberra Packard, Zurich). […] Stimulation indices were calculated as the ratio of blank-subtracted test and control values at 2.5 mg BLG/mL and 50 μg PHA/mL. PGE2 levels in the culture media, from lymphocytes cultured for 6 hrs or 12 hrs, were determined by using an enzyme immunoassay (EIA) kit (Cayman Chemical, ). […]

[3] = test system: spleen cells; experiment: Specific proliferation assay ((3H)Tdr incorporation) of spleen cells from treated mice; conditions: 4 days post-tolerization; index below 0.5 indicates tolerized mice; drugs compared with whey proteins fed mice
Description: as §1, with “FCS. Spleen cell solutions were homogenized through a cellular sieve (Falcon) and purified from red cells using Histopaque density centrifugation (Sigma) at 390×g for 20 min.” for “FCS.”, “PHA/mL.” for “PHA/mL. PGE2 levels in the culture media, from lymphocytes cultured for 6 hrs or 12 hrs, were determined by using an enzyme immunoassay (EIA) kit (Cayman Chemical, ).”

[4] = test system: BLG-stimulated lymphocytes; experiment: Cytokine ELISA (IFN-γ) in supernatants of BLG-stimulated spleen cells from treated mice; conditions: mice fed whey proteins 3 mg/g on day 0; drug daily day -3 to day 4; 5 days after tolerization; whey vs non-tolerized control mice, drugs vs whey proteins fed mice
Description: as §1, with “PHA/mL. […] IFN-γ” for “PHA/mL. PGE2”, “levels were measured using cytokine specific ELISA kit Endogen; which were performed according to” for “levels in”, “the manufacturers' instructions.” for “the culture media, from lymphocytes cultured for 6 hrs or 12 hrs, were determined by using an enzyme immunoassay (EIA) kit (Cayman Chemical, ).”

CC(C)Cc1ccc(C(C)C(=O)O)cc1 (stereo not shown) [ibuprofen]
not observed: humoral anti-BLG IgE titers [1] | PGE2 production by BLG-stimulated lymphocytes in culture [2] | proliferative response index (stimulation index) [3] | INF-γ production by BLG-stimulated lymphocytes in culture [4]
